In PubChem BioAssay AID200 (DTP/NCI, 2004):
Several values for one entry are separate records, joined by “and”; a condition that tells them apart may be missing. Equal entries are not always repeated. Toxic doses and inconclusive results are not listed.

Tested on: B6C3F1 mice, B16 melanoma ip, median survival T/C
Assay: NCI In Vivo Anticancer Drug Screen. Data for tumor model B16 Melanoma (intraperitoneal) in B6C3F1 mice
Conditions: endpoint: median survival time, higher = longer survival
Method in brief: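 Transplantable tumor in mice; treated vs vehicle control groups; survival or tumor size measured; value = T/C ratio.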

[1] = dose: 25.0 mg/kg/injection, schedule: Q01DX009 (ip), vehicle: saline with Tween-80
[2] = dose: 50.0 mg/kg/injection, schedule: Q01DX009 (ip), vehicle: saline with Tween-80
[3] = dose: 12.5 mg/kg/injection, schedule: Q01DX009 (ip), vehicle: saline with Tween-80
[4] = dose: 25.0 mg/kg/injection, schedule: Q01DX009 (ip), vehicle: Klucel (hydroxypropylcellulose) (HPC)
[5] = dose: 50.0 mg/kg/injection, schedule: Q01DX009 (ip), vehicle: Klucel (hydroxypropylcellulose) (HPC)
[6] = dose: 100.0 mg/kg/injection, schedule: Q01DX009 (ip), vehicle: saline with Tween-80
[7] = dose: 200.0 mg/kg/injection, schedule: Q01DX009 (ip), vehicle: Klucel (hydroxypropylcellulose) (HPC)
[8] = dose: 200.0 mg/kg/injection, schedule: Q01DX009 (ip), vehicle: saline with Tween-80
[9] = dose: 400.0 mg/kg/injection, schedule: Q01DX009 (ip), vehicle: Klucel (hydroxypropylcellulose) (HPC)
[10] = dose: 6.25 mg/kg/injection, schedule: Q01DX009 (ip), vehicle: Klucel (hydroxypropylcellulose) (HPC)
[11] = dose: 12.5 mg/kg/injection, schedule: Q01DX009 (ip), vehicle: Klucel (hydroxypropylcellulose) (HPC)
[12] = dose: 3.12 mg/kg/injection, schedule: Q01DX009 (ip), vehicle: saline with Tween-80
[13] = dose: 6.25 mg/kg/injection, schedule: Q01DX009 (ip), vehicle: saline with Tween-80
[14] = dose: 100.0 mg/kg/injection, schedule: Q01DX009 (ip), vehicle: Klucel (hydroxypropylcellulose) (HPC)

`ClC1(Cl)Cc2ccccc21` was tested, and the T/C (dose: 18.0 mg/kg/injection, schedule: Q01DX009 (ip), vehicle: saline with Tween-80) was 105 % of control, the T/C [1] was 122 % of control and the T/C (dose: 30.0 mg/kg/injection, schedule: Q01DX009 (ip), vehicle: saline with Tween-80) was 107 % of control. For the same molecule, the T/C [2] was 99 % of control, the T/C (dose: 83.33 mg/kg/injection, schedule: Q01DX009 (ip), vehicle: saline with Tween-80) was 103 % of control and the T/C (dose: 138.88 mg/kg/injection, schedule: Q01DX009 (ip), vehicle: saline with Tween-80) was 100 % of control.
With `O=Cc1ccccc1` the T/C [3] was 101 % of control, the T/C [4] was 100 % of control and the T/C [1] was 99 % of control. For the same molecule, the T/C [5] was 105 % of control, the T/C [2] was 98 % of control and the T/C (dose: 50.0 mg/kg/injection, schedule: Q01DX009 (oral), vehicle: Klucel (hydroxypropylcellulose) (HPC)) was 95 % of control. For the same molecule, the T/C [6] was 98 % of control, the T/C (dose: 100.0 mg/kg/injection, schedule: Q01DX009 (oral), vehicle: Klucel (hydroxypropylcellulose) (HPC)) was 88 % of control and the T/C [7] was 86 % of control. The T/C [8] was 89 % of control, the T/C (dose: 200.0 mg/kg/injection, schedule: Q01DX009 (oral), vehicle: Klucel (hydroxypropylcellulose) (HPC)) was 98 % of control and the T/C [9] was 92 % of control. The T/C (dose: 400.0 mg/kg/injection, schedule: Q01DX009 (oral), vehicle: Klucel (hydroxypropylcellulose) (HPC)) was 105 % of control.
In the case of `COc1c(C=O)c2c(c(OC)c1OC)-c1ccc(OC)c(=O)cc1[C@@H](NC(C)=O)CC2`, the T/C (dose: 0.78 mg/kg/injection, schedule: Q01DX009 (ip), vehicle: Klucel (hydroxypropylcellulose) (HPC)) is reported as 116 % of control, the T/C (dose: 1.56 mg/kg/injection, schedule: Q01DX009 (ip), vehicle: Klucel (hydroxypropylcellulose) (HPC)) is reported as 111 % of control and 121 % of control and 124 % of control and the T/C (dose: 3.12 mg/kg/injection, schedule: Q01DX009 (ip), vehicle: Klucel (hydroxypropylcellulose) (HPC)) is reported as 123 % of control and 107 % of control. For the same molecule, the T/C [10] was 116 % of control, the T/C [11] was 120 % of control and the T/C (dose: 12.6 mg/kg/injection, schedule: Q01DX009 (ip), vehicle: Klucel (hydroxypropylcellulose) (HPC)) was 114 % of control.
`O=NNc1ccccn1` was tested, and the T/C (dose: 1.56 mg/kg/injection, schedule: Q01DX009 (ip), vehicle: water) was 120 % of control and 96 % of control and the T/C (dose: 3.12 mg/kg/injection, schedule: Q01DX009 (ip), vehicle: water) was 116 % of control and 120 % of control and 124 % of control.
For `Nc1nnc[se]1`, the T/C (dose: 3.0 mg/kg/injection, schedule: Q01DX009 (ip), vehicle: saline with Tween-80) was 98 % of control, the T/C [12] was 101 % of control and the T/C [13] was 101 % of control and 102 % of control. The T/C (dose: 12.0 mg/kg/injection, schedule: Q01DX009 (ip), vehicle: saline with Tween-80) was 103 % of control, the T/C [3] was 109 % of control and 102 % of control and the T/C [1] was 108 % of control (2×) and 105 % of control. The T/C [2] was 108 % of control and 115 % of control.
In the case of `CC(C)(C)OC(=O)N1CCCC1C(=O)N1CCCC1C(=O)Oc1ccccc1` (configuration not stated), the T/C [1] is reported as 103 % of control, the T/C [2] is reported as 93 % of control and the T/C [6] is reported as 100 % of control. For the same molecule, the T/C (dose: 100.0 mg/kg/injection, schedule: Q01DX009 (ip), vehicle: suspension in saline) was 118 % of control, the T/C [8] was 94 % of control and the T/C (dose: 200.0 mg/kg/injection, schedule: Q01DX009 (ip), vehicle: suspension in saline) was 115 % of control. For the same molecule, the T/C (dose: 400.0 mg/kg/injection, schedule: Q01DX009 (ip), vehicle: suspension in saline) was 104 % of control.
`COC1C(OC(=O)/C=C/C=C/C=C/C=C/C(=O)O)CCC2(CO2)C1C1(C)OC1CC=C(C)C` (configuration not stated) was tested, and the T/C (dose: 25.0 mg/kg/injection, schedule: Q01DX009 (ip), vehicle: saline) was 117 % of control, the T/C (dose: 50.0 mg/kg/injection, schedule: Q01DX009 (ip), vehicle: saline) was 113 % of control and the T/C (dose: 100.0 mg/kg/injection, schedule: Q01DX009 (ip), vehicle: saline) was 119 % of control. The T/C (dose: 200.0 mg/kg/injection, schedule: Q01DX009 (ip), vehicle: saline) was 113 % of control.
For `CCCCCCCCCCCCCCCC(=O)OCC1OC(n2ccc(N)nc2=O)C(O)C1O` (configuration not stated), the T/C (dose: 3.75 mg/kg/injection, schedule: Q01DX009 (ip), vehicle: saline with Tween-80) was 117 % of control and the T/C (dose: 7.5 mg/kg/injection, schedule: Q01DX009 (ip), vehicle: saline with Tween-80) was 113 % of control and 121 % of control.
For `C[C@]12CC[C@@H]3c4ccc(OC(=O)Cc5ccc(N(CCCl)CCCl)cc5)cc4CC[C@H]3[C@@H]1CC[C@@H]2OC(=O)Cc1ccc(N(CCCl)CCCl)cc1`, the T/C [11] was 104 % of control, the T/C [4] was 92 % of control and 103 % of control and the T/C [5] was 121 % of control and 103 % of control. For the same molecule, the T/C [14] was 90 % of control and 93 % of control, the T/C [7] was 104 % of control and the T/C [9] was 92 % of control and 103 % of control.
In the case of `CCCCOc1ccc(C(=O)SCCCN=C(N)N)cc1`, the T/C (dose: 3.12 mg/kg/injection, schedule: Q01DX009 (ip), vehicle: suspension in saline) is reported as 92 % of control, the T/C (dose: 6.25 mg/kg/injection, schedule: Q01DX009 (ip), vehicle: suspension in saline) is reported as 97 % of control and the T/C (dose: 25.0 mg/kg/injection, schedule: Q01DX009 (ip), vehicle: suspension in saline) is reported as 87 % of control.
In the case of `CNC(=O)Oc1ccc(S(=O)(=O)c2ccc(OC(=O)NC)cc2)cc1`, the T/C [13] is reported as 109 % of control, the T/C [3] is reported as 95 % of control and the T/C [1] is reported as 88 % of control and 98 % of control. For the same molecule, the T/C [2] was 90 % of control and 96 % of control and the T/C [6] was 86 % of control.
With `CN(C)N=Nc1cn[nH]c1C(N)=O` the T/C [11] was 98 % of control, the T/C [4] was 91 % of control and the T/C [5] was 96 % of control. The T/C [14] was 87 % of control, the T/C [7] was 89 % of control and the T/C [9] was 86 % of control.
For `O=[n+]1c2c(n([O-])c3ccccc31)-c1cccc3cccc-2c13`, the T/C (dose: 3.12 mg/kg/injection, schedule: Q01DX009 (ip), vehicle: saline) was 99 % of control, the T/C (dose: 6.25 mg/kg/injection, schedule: Q01DX009 (ip), vehicle: saline) was 91 % of control and the T/C (dose: 12.5 mg/kg/injection, schedule: Q01DX009 (ip), vehicle: saline) was 94 % of control.
For `Oc1cc2ccccc2c(-c2c(O)c(O)cc3ccccc23)c1O`, the T/C (dose: 0.78 mg/kg/injection, schedule: Q01DX009 (ip), vehicle: saline with Tween-80) was 95 % of control, the T/C (dose: 1.56 mg/kg/injection, schedule: Q01DX009 (ip), vehicle: saline with Tween-80) was 115 % of control and the T/C [12] was 99 % of control. The T/C [13] was 111 % of control and 93 % of control and the T/C [8] was 100 % of control.
`N#Cc1ccc(NC(=O)Nc2nccs2)cc1` was tested, and the T/C (dose: 100.0 mg/kg/injection, schedule: Q01DX009 (ip), vehicle: distilled water + Tween-80) was 150 % of control.
With `CCC(C)C(O)C(C)C(=O)C(C)/C=C(\C)CC(C)C1OC(=O)C1C` (configuration not stated) the T/C (dose: 0.25 mg/kg/injection, schedule: Q01DX009 (ip), vehicle: saline + alcohol) was 96 % of control, the T/C (dose: 0.5 mg/kg/injection, schedule: Q01DX009 (ip), vehicle: saline + alcohol) was 98 % of control and 104 % of control and the T/C (dose: 1.0 mg/kg/injection, schedule: Q01DX009 (ip), vehicle: saline + alcohol) was 99 % of control and 101 % of control. For the same molecule, the T/C (dose: 2.0 mg/kg/injection, schedule: Q01DX009 (ip), vehicle: saline + alcohol) was 96 % of control and 98 % of control.
With `COc1ccc(C(Nc2ccccc2)C(=O)c2ccccc2)cc1` (configuration not stated) the T/C [10] was 102 % of control, the T/C [11] was 96 % of control and the T/C [4] was 96 % of control.
`Oc1ccc2ccccc2c1N=Nc1ccc(F)cc1` was tested, and the T/C [2] was 111 % of control and 113 % of control, the T/C [6] was 120 % of control and the T/C [8] was 109 % of control and 123 % of control. For the same molecule, the T/C (dose: 400.0 mg/kg/injection, schedule: Q01DX009 (ip), vehicle: saline with Tween-80) was 113 % of control and 106 % of control.
